{
  "source": "patent US9303061B2",
  "about": "“Spiro compounds as Hepatitis C virus inhibitors” (Sunshine Luke Pharma Co., Ltd., priority 2011, dated 2016)",
  "key": {"HCV GT1a replicon cells": {"test_system": "HCV GT1a replicon cells", "test": "HCV replicon assay, GT1a replicon cells (luciferase reporter / NEO gene qPCR)", "format": "cell-based", "details": "Hepatitis C virus, GT1A, EC50 range against HCV 1a genotype, 72 hours incubation", "method": "(§1) An HCV Replicon assay was utilized in the present disclosure, and was prepared, developed and validated as described in Science, 1999, 285 (5424), 110-3 and J. Virol., 2003, 77 (5), 3007-19.\n(§2) HCV GT1a, GT1b and GT2a replicon cells were used to test the currently described compound series as well as wild-type cells HCV 1b and resistant cells Y93H, L31F, P32L and 1302V. GT1a, GT1b and GT2a are HCV Replicon System which is transfected HCV 1a, 1b, 2a genotype respectively. The system containing G418 resistance gene NEO and Luciferase Reporter Gene can be used to determine the level of HCV replication, and evaluate the effects of the compounds inhibiting HCV replication, by using a real-time quantitative polymerase chain reaction (qPCR) method to detect NEO, and chemiluminescence method to test Luciferase Reporter Gene.\n(§3) 1. Testing EC50 of the Compounds by Luciferase Assay\n(§4) The GT1a cells and GT1b cells were seeded into 96-well plates (8,000 cells in 125 μl/well) respectively; each compound was diluted to desired concentration using 5-fold serial dilutions protocol, 10 dose in duplicate, and added to wells with POD™ 810 Plate Assembler. The final concentration of DMSO was 0.5%; the plates were incubated in a CO2 incubator for 72 hours; after that, 40 μl of Luciferase assay substrate (Promega Bright-Glo) was added to each well, and detected by a chemiluminescence detection system (Topcount Microplate Scintillation and Luminescence Counter) 5 minutes later; data analysis.\n(§5) 2. Testing EC50 of the Compounds by Detecting Antibiotic G418 Resistance Gene NEO Gene\n(§6) The GT1a cells and GT1b cells were seeded into 96-well plates (8,000 cells in 125 μl/well) respectively; each compound was diluted to desired concentration using 5-fold serial dilutions protocol, 10 dose in duplicate, and added to wells with POD™ 810 Plate Assembler, the final concentration of DMSO was 0.5%; the cells were incubated in a CO2 incubator for 72 hours; quantitative PCR. • Sample preparation: the supernatant was removed, 100 μl of FCW buffer solution was added to each well, washed carefully and discarded the solution; 50 μl of lysate FCP was added to each well, the cells was lysed as PCR template and PCR template was diluted with DEPC water as sample template. • Quantitative PCR: preparation of reaction mixture according to PCR system; the reaction mixture was dispensed into a 384-well PCR reaction plate (specially for quantitative); and a standard template which was diluted in proportion was distributed into the plate; and the sample template was distributed into the plate; then the 384-well plate was sealed with closure plate membrane; the […] PCR machine was operated by procedures; data analysis.\n(§7) 3. Data processing: EC50 values of compounds were analyzed by GRAPHPAD PRISM® software."}, "HCV GT1b replicon cells": {"test_system": "HCV GT1b replicon cells", "test": "HCV replicon assay, GT1b replicon cells (luciferase reporter / NEO gene qPCR)", "format": "cell-based", "details": "EC50 range against HCV 1b genotype, 72 hours incubation", "method": "as §1, §2, §3, §4, §5, §6, §7"}},
  "data": [
    {"smiles": "COC(=O)N[C@H](C(=O)N1CCC[C@H]1c1nc2ccc(-c3ccc(-c4ccc5nc([C@@H]6CCCN6C(=O)[C@@H](NC(=O)OC)C(C)C)[nH]c5c4)c4c3CC3(CCCCC3)C4)cc2[nH]1)C(C)C", "note": "[Example 6]", "values": [
      {"measurement": "EC50", "setting": "HCV GT1a replicon cells", "value": "0.001 to 0.1", "unit": "nM"},
      {"measurement": "EC50", "setting": "HCV GT1b replicon cells; Hepatitis C virus, GT1B, 72 h", "value": "0.001 to 0.1", "unit": "nM"}
    ]},
    {"smiles": "CCC(C)[C@H](NC(=O)OC)C(=O)N1C2CC2C[C@H]1c1ncc(-c2ccc(-c3ccc(-c4cnc([C@@H]5CC6CC6N5C(=O)[C@@H](NC(=O)OC)C(C)CC)[nH]4)c4c3CC3(CCCC3)C4)cc2)[nH]1", "note": "(stereo partly drawn) [Example 43]", "values": [
      {"measurement": "EC50", "setting": "HCV GT1a replicon cells", "value": "0.001 to 0.1", "unit": "nM"},
      {"measurement": "EC50", "setting": "HCV GT1b replicon cells; Hepatitis C virus, GT1B, 72 h", "value": "> 10", "unit": "nM"}
    ]},
    {"smiles": "COC(=O)N[C@H](C(=O)N1CCC[C@H]1c1ncc(-c2ccc(-c3ccc(-c4ccc5nc([C@@H]6CCCN6C(=O)[C@@H](NC(=O)OC)C(C)C)[nH]c5c4)c4c3CC3(CCCC3)C4)cc2)[nH]1)C(C)C", "note": "[Example 23]", "values": [
      {"measurement": "EC50", "setting": "HCV GT1a replicon cells", "value": "0.001 to 0.1", "unit": "nM"},
      {"measurement": "EC50", "setting": "HCV GT1b replicon cells; Hepatitis C virus, GT1B, 72 h", "value": "0.001 to 0.1", "unit": "nM"}
    ]},
    {"smiles": "COC(=O)N[C@H](C(=O)N1C[C@@H](C)C[C@H]1c1ncc(-c2ccc(-c3ccc(-c4cnc([C@@H]5C[C@H](C)CN5C(=O)[C@@H](NC(=O)OC)C(C)C)[nH]4)c4c3CC3(CCCCC3)C4)cc2)[nH]1)C(C)C", "note": "[Example 18]", "values": [
      {"measurement": "EC50", "setting": "HCV GT1a replicon cells", "value": "0.001 to 0.1", "unit": "nM"},
      {"measurement": "EC50", "setting": "HCV GT1b replicon cells", "value": "> 10", "unit": "nM"}
    ]},
    {"smiles": "COC(=O)N[C@H](C(=O)N1CCC[C@H]1c1ncc(-c2ccc(-c3ccc(-c4ccc(-c5cnc([C@@H]6CCCN6C(=O)[C@@H](NC(=O)OC)C(C)C)[nH]5)cc4)c4c3CC3(CCCC3)C4)cc2)[nH]1)C(C)C", "note": "[Example 38]", "values": [
      {"measurement": "EC50", "setting": "HCV GT1a replicon cells", "value": "0.101 to 1", "unit": "nM"},
      {"measurement": "EC50", "setting": "HCV GT1b replicon cells; Hepatitis C virus, GT1B, 72 h", "value": "> 10", "unit": "nM"}
    ]},
    {"smiles": "COC(=O)N[C@H](C(=O)N1CCC[C@H]1c1ncc(-c2ccc(-c3ccc(-c4ccc5nc([C@@H]6CCCN6C(=O)[C@@H](NC(=O)OC)C(C)C)[nH]c5c4)c4c3C(=O)C3(CCCC3)C4)cc2)[nH]1)C(C)C", "note": "[Example 36]", "values": [
      {"measurement": "EC50", "setting": "HCV GT1a replicon cells", "value": "0.001 to 0.1", "unit": "nM"},
      {"measurement": "EC50", "setting": "HCV GT1b replicon cells; Hepatitis C virus, GT1B, 72 h", "value": "0.001 to 0.1", "unit": "nM"}
    ]}
  ]
}
